Source: patent US20240400560A1, “BICYCLIC HETEROCYCLIC DERIVATIVE HAVING VIRAL GROWTH INHIBITORY ACTIVITY AND PHARMACEUTICAL COMPOSITION CONTAINING SAME” (Shionogi & Co., Ltd., priority 2021, published 2024)
Read-outs that look alike come from different tables or passages of the source.

Tests used:
SARS-CoV-2 = assay: Inhibitory activity of cytopathic effect (CPE) in HEK293T/ACE2-TMPRSS2 cells; format: cell-based; settings: Severe acute respiratory syndrome coronavirus 2, HEK-293T, 72 h, HEK293T/ACE2-TMPRSS2 cells
SARS-CoV-2 3CL protease = SARS-CoV-2 3CL protease (Severe acute respiratory syndrome coronavirus 2, UniProt P0DTD1); assay: Inhibitory activity test against SARS-CoV-2 3CL proteases; format: biochemical; settings: read-out: IC50 (50% SARS-CoV-2 3CL protease inhibitory concentration)
[1] = cultured 3 days, CellTiter-Glo 2.0 luminescence, read-out: EC50 (50% SARS-CoV-2 infected cell death inhibitory concentration)
[2] = 50% SARS-CoV-2 infected cell death inhibitory concentration, CellTiter-Glo 2.0 after 3 days culture, read-out: EC50

SMILES | EC50 (SARS-CoV-2; [1]) [nM] | IC50 (SARS-CoV-2 3CL protease) [nM] | EC50 (SARS-CoV-2; [2]) [nM]
COc1nc(N2CC[C@@H](O)C2)cc2c1c(=O)n(-c1cncc(OCF)c1)c(=O)n2-c1ccc(F)c(Cl)c1 [Compound I-0956] | < 100 | < 100 | 
COc1nc(N2CC[C@@H](O)C2)cc2c1c(=O)n(-c1cncc(C#N)c1)c(=O)n2-c1ccc(F)c(Cl)c1 [Compound I-0957] |  | 3.2 | 8.14
COc1nc(N2CC[C@@H](C#N)C2)cc2c1c(=O)n(-c1cnc3cc(F)ccn13)c(=O)n2-c1ccc(F)c(C(F)F)c1 [Compound I-0958] | < 100 | < 100 | 
COc1nc(N2CC[C@@H](C#N)C2)cc2c1c(=O)n(-c1cnc3cc(F)ccn13)c(=O)n2-c1ccc(F)c(F)c1 [Compound I-0959] | < 100 | < 100 | 
COc1nc(N2C[C@@H]3C[C@H]2CO3)cc2c1c(=O)n(-c1cnc3cc(F)ccn13)c(=O)n2-c1ccc(F)c(C(F)F)c1 [Compound I-0960] | < 100 | < 100 | 
COc1nc(N2C[C@@H](F)[C@@H](F)C2)cc2c1c(=O)n(-c1cnc3cc(F)ccn13)c(=O)n2-c1ccc(F)c(C(F)F)c1 [Compound I-0961] |  | 3.4 | 5.82
Cl.[2H]C([2H])([2H])O[C@@H]1CCN(c2cc3c(c(OC)n2)c(=O)n(-c2cnc4cc(F)c(F)cn24)c(=O)n3-c2ccc(F)c(Cl)c2)C1 [Compound I-0962] | < 100 | < 100 | 
[2H]C([2H])([2H])O[C@@H]1CCN(c2cc3c(c(OC)n2)c(=O)n(-c2cncc(OCF)c2)c(=O)n3-c2ccc(F)c(Cl)c2)C1 [Compound I-0963] | < 100 | < 100 | 
COc1nc(N2CC[C@@H](O)C2)cc2c1c(=O)n(-c1cncc(C(F)F)c1)c(=O)n2-c1ccc(F)c(Cl)c1 [Compound I-0964] | < 100 | < 100 | 
COc1nc(N2CC[C@@H](O)C2)cc2c1c(=O)n(-c1cncc(F)c1)c(=O)n2-c1ccc(F)c(Cl)c1 [Compound I-0965] | < 100 | < 100 | 
CCNc1cc2c(c(OC)n1)c(=O)n(-c1cncc(Cl)c1)c(=O)n2-c1ccc(F)c(Cl)c1 [Compound I-0966] |  | 3.8 | 9.01
COc1nc(N2CC[C@@H](O)C2)cc2c1c(=O)n(-c1cnc3cc(F)c(F)cn13)c(=O)n2-c1ccc(F)c(Cl)c1 [Compound I-0967] | < 100 | < 100 | 
COc1nc(N2CC[C@@H](O)C2)cc2c1c(=O)n(-c1cncc(OC(F)F)c1)c(=O)n2-c1ccc(F)c(Cl)c1 [Compound I-0968] | < 100 | < 100 | 
COc1nc(N2CC[C@@H](CO)C2)cc2c1c(=O)n(-c1cncc(Cl)c1)c(=O)n2-c1ccc(F)c(Cl)c1 [Compound I-0969] | < 100 | < 100 | 
[2H]C([2H])([2H])O[C@@H]1CCN(c2cc3c(c(OC)n2)c(=O)n(-c2cncc(C(F)F)c2)c(=O)n3-c2ccc(F)c(Cl)c2)C1 [Compound I-0970] | < 100 | < 100 | 
[2H]C([2H])([2H])O[C@@H]1CCN(c2cc3c(c(OC)n2)c(=O)n(-c2cncc(OC(F)F)c2)c(=O)n3-c2ccc(F)c(Cl)c2)C1 [Compound I-0971] | < 100 | < 100 | 
[2H]C([2H])([2H])O[C@@H]1CCN(c2cc3c(c(OC)n2)c(=O)n(-c2cc(C)cnn2)c(=O)n3-c2ccc(F)c(Cl)c2)C1 [Compound I-0972] | < 100 | < 100 | 
[2H]C([2H])([2H])O[C@@H]1CCN(c2cc3c(c(OC)n2)c(=O)n(-c2cncc(Cl)c2)c(=O)n3-c2ccc(F)c(F)c2)C1 [Compound I-0973] | < 100 | < 100 | 
COc1nc(N2CCC(S(C)(=O)=O)C2)cc2c1c(=O)n(-c1cncc(Cl)c1)c(=O)n2-c1ccc(F)c(Cl)c1 (stereo not shown) [Compound I-0974] | < 100 | < 100 | 
COc1nc(N2CCC(n3cccn3)C2)cc2c1c(=O)n(-c1cnc3cc(F)ccn13)c(=O)n2-c1ccc(F)c(Cl)c1 (stereo not shown) [Compound I-0975] | < 100 | < 100 | 
COc1nc(C(C)C)cc2c1c(=O)n(-c1cnc3cc(F)ccn13)c(=O)n2-c1ccc(F)c(Cl)c1 [Compound I-0976] | < 100 | < 100 | 
COc1nc(N2CCC(F)(F)C2)cc2c1c(=O)n(-c1cncc(C#N)c1)c(=O)n2-c1ccc(F)c(Cl)c1 [Compound I-0977] | < 100 | < 100 | 

SMILES | EC50 (SARS-CoV-2; [1]) [nM] | IC50 (SARS-CoV-2 3CL protease) [nM] | EC50 (SARS-CoV-2; [2]) [nM]
COc1nc(N2C[C@@H]3C[C@H]2CO3)cc2c1c(=O)n(-c1cnc3cc(F)ccn13)c(=O)n2-c1ccc(F)c(F)c1 [Compound I-0978] |  | 4.8 | 11.8
COc1nc(N2CC[C@@H](O)C2)cc2c1c(=O)n(-c1cncc(Cl)c1)c(=O)n2-c1ccc(F)c(F)c1 [Compound I-0979] | < 100 | < 100 | 
COc1nc(N2CC[C@@H](C#N)C2)cc2c1c(=O)n(-c1cncc(OCF)c1)c(=O)n2-c1ccc(F)c(F)c1 [Compound I-0980] | < 100 | < 100 | 
[2H]C([2H])([2H])O[C@@H]1CCN(c2cc3c(c(OC)n2)c(=O)n(-c2cnc4cc(F)ccn24)c(=O)n3-c2ccc(F)c(C(F)F)c2)C1 [Compound I-0981] | < 100 | < 100 | 
COc1nc(N2CC[C@@H](F)C2)cc2c1c(=O)n(-c1cnc3cc(F)ccn13)c(=O)n2-c1ccc(F)c(F)c1 [Compound I-0982] | < 100 | < 100 | 
COc1nc(N2CC[C@@H](C(F)F)C2)cc2c1c(=O)n(-c1cnc3cc(F)ccn13)c(=O)n2-c1ccc(F)c(Cl)c1 [Compound I-0983] | < 100 | < 100 | 
COc1nc(N2CC[C@@H](C#N)C2)cc2c1c(=O)n(-c1cncc(C#N)c1)c(=O)n2-c1ccc(F)c(F)c1 [Compound I-0984] | < 100 | < 100 | 
COc1nc(N2C[C@H]3COC[C@H]3C2)cc2c1c(=O)n(-c1cnc3cc(F)ccn13)c(=O)n2-c1ccc(F)c(Cl)c1 [Compound I-0985] | < 100 | < 100 | 
COc1nc(N(C)C)cc2c1c(=O)n(-c1cnc3cc(F)ccn13)c(=O)n2-c1ccc(F)c(Cl)c1 [Compound I-0986] |  | 6.5 | 7.1
COc1nc(N2CC(F)C2)cc2c1c(=O)n(-c1cnc3cc(F)ccn13)c(=O)n2-c1ccc(F)c(Cl)c1 [Compound I-0987] | < 100 | < 100 | 
O=c1c2c(=O)n(-c3cnc4cc(F)ccn34)c(=O)n(-c3ccc(F)c(Cl)c3)c2cc2n1C[C@@H]1CCCCN21 [Compound I-0988] | 100 to 1000 | < 100 | 
COc1nc(N2C[C@H]3C[C@@H]2CO3)cc2c1c(=O)n(-c1cnc3cc(F)ccn13)c(=O)n2-c1ccc(F)c(Cl)c1 [Compound I-0989] | < 100 | < 100 | 
COc1nc(N2CC[C@@H](C#N)C2)cc2c1c(=O)n(-c1cncc(F)c1)c(=O)n2-c1ccc(F)c(F)c1 [Compound I-0990] |  | 6.8 | 8.89
COc1nc(N2C[C@@H]3C[C@H]2CO3)cc2c1c(=O)n(-c1cncc(C#N)c1)c(=O)n2-c1ccc(F)c(F)c1 [Compound I-0991] | < 100 | < 100 | 
COc1nc(N2CC[C@@H](O)C2)cc2c1c(=O)n(-c1cnc3ccc(C#N)cn13)c(=O)n2-c1ccc(F)c(Cl)c1 [Compound I-0992] | < 100 | < 100 | 
CCN(C)c1cc2c(c(OC)n1)c(=O)n(-c1cnc3cc(F)ccn13)c(=O)n2-c1ccc(F)c(Cl)c1 [Compound I-0993] | < 100 | < 100 | 
COc1nc(N2CC[C@@H](NC(C)=O)C2)cc2c1c(=O)n(-c1cncc(Cl)c1)c(=O)n2-c1ccc(F)c(Cl)c1 [Compound I-0994] | < 100 | < 100 | 
COc1nc(N2CC[C@@H](C#N)C2)cc2c1c(=O)n(-c1cncc(OC(F)F)c1)c(=O)n2-c1ccc(F)c(F)c1 [Compound I-0995] | < 100 | < 100 | 
CCNc1cc2c(c(OC)n1)c(=O)n(-c1cnc3cc(F)ccn13)c(=O)n2-c1ccc(F)c(Cl)c1 [Compound I-0996] | < 100 | < 100 | 
COc1nc(N2CCC(F)(F)C2)cc2c1c(=O)n(-c1cncc(C)n1)c(=O)n2-c1ccc(F)c(Cl)c1 [Compound I-0997] | < 100 | < 100 | 
COc1nc(N2CCC(F)(F)C2)cc2c1c(=O)n(-c1cncc(F)c1)c(=O)n2-c1ccc(F)c(Cl)c1 [Compound I-0998] | < 100 | < 100 | 
C=Cc1cc2c(c(OC)n1)c(=O)n(-c1cnc3cc(F)ccn13)c(=O)n2-c1ccc(F)c(Cl)c1 [Compound I-0999] | 100 to 1000 | < 100 | 
